Laboratory results as given in patent US20090197853A1, “METHODS AND COMPOSITIONS OF TREATING CANCER” (priority 2005, published 2009).
Entries after “also recorded” stand apart in the source; their conditions may differ. Starred links: 1 amine or outer side, 2 acyl side, 3 side chain; linkers in the order of their positions; H or OH if unused. Positions of bridges follow the written chain, without caps; N, C: chain ends. Non-standard residues stand in square brackets, D forms with d. Residues, ends and D or L forms follow the SMILES beside them. Chains are numbered I, II in the order given. Actinocin(9to1) = Cc1c2oc3c(C)ccc(C(=O)[*:1])c3nc-2c(C(=O)[*:2])c(N)c1=O; NMeV = CN[C@H](C(=O)O)C(C)C; Sar = CNCC(=O)O

Assays:
[1] = tested on: Ramos cells; test: Cell cycle analysis (BrdU / 7-AAD), Ramos; assay type: cell-based; details: for Cell cycle distribution / progression: Ramos; for BrdU incorporation into DNA: comparison treatments
Description: Methods: […] Thirty minutes prior to harvest, cultures were treated with 5-bromo-2′-deoxyuridine (BrdU) at a final concentration of 10 μM. Cells were isolated by centrifugation, washing once with 0.5% BSA in PBS, and the resulting cell pellets fixed using 0.5 mL Cytofix/Cytoperm reagent (BD Biosciences). […] Cells were stained using a fluorescein-conjugated anti-BrdU antibody (clone PRB1, E-Bioscience, San Diego, Calif.) and 7-AAD. Cell cycle occupancy was analyzed by flow cytometry using fluorescein signal as a measure of DNA synthesis and 7-AAD signal as a measure of DNA content. […] L. Shepherd & Assoc., San Fernando, Calif.).

[2] = tested on: Thioredoxin reductase; test: Lipoate reduction (thioredoxin reductase activity) in intact A549 cells; assay type: cell-based, human; details: A549; actinomycin D 2.5 μg/mL or cycloheximide 10 μg/mL 1 hour prior, BSO 100 μM 24 hours prior
Description: Methods: Lipoate Reduction. Thioredoxin reductase activity was assessed by measuring the rate of lipoate reduction. In brief, A549 or PC3 cells (10,000 cells/well) were plated on 96-well plates and allowed to adhere overnight and grow two additional days until confluent. Cells were treated with MGd, zinc, or 5% mannitol for 2-4 hours, as indicated. Medium was removed, cells were washed with Hanks Balanced Salt Solution (HBSS), and a solution of 5 mM lipoic acid and 1 mM 5,5′-dithiobis(2-nitrobenzoic acid) in HBSS (100 μL/well) was added. Plates were incubated at ambient temperature in the dark. At chosen time intervals, plate absorbance was measured at 405-650 nm. Plate absorbances were normalized to wells containing neither exogenous zinc nor texaphyrin complex to allow plate-to-plate comparison. In some experiments, L-buthionine-[S,R]-sulfoximine (BSO, 100 μM) was added 24 hours prior to MGd or zinc treatment, to inhibit any contribution to lipoate reduction made by glutathione-dependent pathways (28). Actinomycin D (2.5 μg/mL) or cycloheximide (10 μg/mL), where present, was added 1 hour prior to texaphyrin or zinc treatment. Viability was checked on parallel plates using the tetrazolium dye 3-(4,5-dimethylthiazol-2-yl)-5-(3-carboxymethoxyphenyl)-2-(4-sulfophenyl)-2H-tetrazolium (MTS) following the manufacturers protocol (Promega Corp.).

[3] = tested on: metallothionein gene family members and ZnT1; test: Northern blot analysis, A549 cultures; assay type: cell-based, human; details: for Metallothionein transcript levels: A549, 24 hours, 50 μM MGd, Zn(OAc)2 100 μM, CdCl2 50 μM, FIG. 2B
Description: Methods: Northern Blot Analysis—Plateau phase cultures of A549 cells were prepared as described above, except that T-25 flasks were used, and the number of cells initially plated scaled accordingly. Cultures were treated with 50 μM MGd, 5 μM Gd(OAc)3 or 5% mannitol for 4 hours, whereupon cultures were washed twice with PBS and RNA harvested as above. Alternatively, 7-day plateau phase A549 or PC3 cultures were treated with 50 μM MGd, 50-100 μM Zn(OAc)2, 50 μM CdCl2 or 5% mannitol for 24 hours (A549) or 4 hours (PC3) prior to washing and RNA analysis. Exponential phase Ramos cultures were treated for 6 hours. Northern blots were conducted and analyzed. Radio labeled metallothionein probe, designed to bind to a 113-bp region of 3′-UTR sequences from multiple metallothionein gene family members, was generated using 5′-[…]-3′ (forward) and 5′-[…]-3′ (reverse) PCR primers and the NEBlot kit (New England Biolabs, Inc.). Radio labeled ZnT1 probe was generated in a similar fashion using 5′-[…]-3′ (forward) and 5′-[…]-3′ (reverse) primers.

[4] = tested on: A549 cells; test: Cell viability by propidium iodide exclusion, A549; details: A549, 24 hours; Zn(OAc)2 100 μM, CdCl2 50 μM, MGd 50 μM
Description: Methods: Cellular Viability. Cell viability was determined by using propidium iodide (PI) flow cytometric analysis. Cells from plateau phase cultures grown in T-25 flasks were harvested as described above, except that cells present in the growth medium and wash solution were isolated by centrifugation and included in the analysis. Cells were resuspended in 1 mL PBS, an aliquot of 3×10^5 cells transferred to a 4 mL tube, and the cells isolated by centrifugation. Cell pellets were resuspended in PBS supplemented with 2 μg/mL propidium iodide (Sigma), incubated for 5 minutes at ambient temperature, and subjected to flow cytometric analysis. Flow cytometry was performed on a FACSCalibur instrument and data were analyzed using the CellQuest Pro software package (BD Biosciences).

[5] = tested on: HIF-1α; test: HIF-1α sandwich ELISA, Ramos; assay type: cell-based; details: four hours
Description: Methods: Total HIF-1α protein was detected by sandwich ELISA using the DuoSet IC™ HIF-1α ELISA kit obtained from R&D Systems (Minneapolis, Minn.). All incubations were carried out at ambient temperature. Briefly, 96-well plates were coated with HIF-1α capture antibody overnight prior to blocking with 5% BSA in wash buffer. Protein lysates (50 μg protein per well prepared according to the manufacturer's instructions) were added for 2 hours, whereupon plates were washed and a biotinylated detection antibody specific for HIF-1α was added. A streptavidin-horseradish peroxidase format was used for detection. The optical density at 450 minus […] was measured using a microplate reader (SpectraMax Plus, Molecular Devices, Palo Alto, Calif.). HIF-1α concentrations were calculated by linear regression using a standard curve prepared from HIF-1α standard supplied with the ELISA kit.

[6] = tested on: Ramos cells; test: Intracellular free zinc (FluoZin-3 fluorescence), Ramos; assay type: cell-based; details: hydrogen peroxide treatment
Description: Methods: Intracellular Free Zinc. The concentration of intracellular free zinc was assessed using the ion-specific fluorescent probe, FluoZin-3-AM™ (FluoZin-3, Molecular Probes, Inc.). […] Following treatment, cells were isolated by centrifugation. Cell pellets were washed and re-suspended in a solution of 0.5% BSA in PBS.

[7] = tested on: Ramos cells; test: Reactive oxygen species (DCFA to DCF), Ramos; assay type: cell-based; details: single agents
Description: Methods: Reactive oxygen species were measured in live cells as intracellular peroxides by monitoring the oxidation of 2′,7′-dichlorofluorescin-diacetate (DCFA) to 2′,7′-dichlorofluorescein (DCF) (Molecular Probes). Cells (1×10^6 per mL) were incubated in a solution of 1 μg per mL DCFA in 0.5% BSA in HBSS for 15 minutes at 37° C. Two mL additional 0.5% BSA in HBSS was added, cells were isolated by centrifugation, and the pellet re-suspended in a solution of 50 μg/mL 7-aminoactinomycin D (7-AAD) in 0.5% BSA in HBSS. Cell suspensions were incubated at ambient temperature for 2 to 3 minutes, and stored on ice until analysis. The fluorescent intensity in live (i.e., 7-AAD impermeable) cells was analyzed by flow cytometry.

## O=c1[nH]c(=O)n([C@H]2C[C@H](O)[C@@H](CO)O2)cc1F [5-fluoro-2′-deoxyuridine]
[1]
  Cell cycle distribution / progression: accumulation of cells in G1/S
  BrdU incorporation into DNA: permitted BrdU incorporation into DNA

## CCCCS(=N)(=O)CCC(N)C(=O)O [BSO, L-buthionine-[S,R]-sulfoximine, reference compound]
[2]
  Effect of pre-treatment on the inhibition of lipoate reduction by MGd and zinc: increased the degree of inhibition

## [Cl][Cd][Cl] [CdCl2, reference compound]
[3]
  Metallothionein transcript levels: significant increase
[3]; listed as cadmium
  Metallothionein transcript levels: raised; also recorded: high levels of metallothionein transcription
[4]
  Cellular viability (propidium iodide exclusion): ca. 53%

## CC(=O)[O-].CC(=O)[O-].CC(=O)[O-].[Gd+3] [Gd(OAc)3, gadolinium acetate, reference compound]
[3]; A549 plateau phase, 4 hours, 50 μM MGd or 5 μM Gd(OAc)3
  Induction of metallothionein gene family members and ZnT1 (Northern blot): induced only in cultures treated with MGd

## Cc1c2oc3c(C)ccc(C(=O)N[C@@H]4C(=O)N[C@H](C(C)C)C(=O)N5CCC[C@H]5C(=O)N(C)CC(=O)N(C)[C@@H](C(C)C)C(=O)O[C@@H]4C)c3nc-2c(C(=O)N[C@@H]2C(=O)N[C@H](C(C)C)C(=O)N3CCC[C@H]3C(=O)N(C)CC(=O)N(C)[C@@H](C(C)C)C(=O)O[C@@H]2C)c(N)c1=O [actinomycin D, reference compound] (I: T[dV]P[Sar][NMeV] / II: T[dV]P[Sar][NMeV]; ester I:1-I:C, II:1-II:C; linker I:N-II:N via Actinocin(9to1))
[2]
  Effect of pre-treatment on the inhibition of lipoate reduction by MGd and zinc: restored the inhibitory effect

## CC(=O)[O-].CC(=O)[O-].[Co+2] [cobalt acetate]
[5]
  Increase in total cellular HIF-1α levels: increased

## C[C@@H]1C[C@@H]([C@H](O)CC2CC(=O)NC(=O)C2)C(=O)[C@@H](C)C1 [cycloheximide, reference compound]
[2]
  Effect of pre-treatment on the inhibition of lipoate reduction by MGd and zinc: restored the inhibitory effect

## OO [hydrogen peroxide, reference compound]
[6]
  FluoZin-3 fluorescence: increased
[7]
  DCF signal: increased

## NC(=O)NO [hydroxyurea]
[1]
  Cell cycle distribution / progression: allowed passage through G2M
  BrdU incorporation into DNA: inhibited BrdU incorporation
